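Dose response: 5 concentrations. Exposure: 48 h. Format: 96-well plates. Endpoint: linear interpolation; highest concentration if not reached. GI50 = concentration required for 50% inhibition of growth. TGI: concentration producing complete growth inhibition.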
Key:
Test in all cases: DTP human tumour cell line panel, 48 h
HOP-92 NSCLC = test system: HOP-92 NSCLC
SW-620 colon = test system: SW-620 colon
786-0 renal = test system: 786-0 renal
IGROV1 ovarian = test system: IGROV1 ovarian
SF-268 CNS = test system: SF-268 CNS
NCI-H226 lung = test system: NCI-H226 lung
KM12 colon = test system: KM12 colon
U251 CNS = test system: U251 CNS
RXF 393 renal = test system: RXF 393 renal
MDA-MB-231 breast = test system: MDA-MB-231 breast
OVCAR-4 ovarian = test system: OVCAR-4 ovarian
SNB-75 CNS = test system: SNB-75 CNS
BT-549 breast = test system: BT-549 breast
COLO 205 colon = test system: COLO 205 colon
CCRF-CEM leukemia = test system: CCRF-CEM leukemia
NCI/ADR-RES ovarian = test system: NCI/ADR-RES ovarian
UO-31 renal = test system: UO-31 renal
MCF7 breast = test system: MCF7 breast
UACC-62 melanoma = test system: UACC-62 melanoma
OVCAR-5 ovarian = test system: OVCAR-5 ovarian
LOX IMVI melanoma = test system: LOX IMVI melanoma
NCI-H460 lung = test system: NCI-H460 lung
SF-295 CNS = test system: SF-295 CNS
OVCAR-3 ovarian = test system: OVCAR-3 ovarian
A549 NSCLC = test system: A549 NSCLC
SNB-19 CNS = test system: SNB-19 CNS
RPMI-8226 leukemia = test system: RPMI-8226 leukemia
SF-539 CNS = test system: SF-539 CNS
MALME-3M melanoma = test system: MALME-3M melanoma
M14 melanoma = test system: M14 melanoma
HCT-15 colon = test system: HCT-15 colon
NCI-H522 lung = test system: NCI-H522 lung
EKVX NSCLC = test system: EKVX NSCLC
MDA-MB-435 = test system: MDA-MB-435
CAKI-1 renal = test system: CAKI-1 renal
ACHN renal = test system: ACHN renal
NCI-H23 lung = test system: NCI-H23 lung
HCT-116 colon = test system: HCT-116 colon
SN12C renal = test system: SN12C renal
PC-3 prostate = test system: PC-3 prostate
SK-OV-3 ovarian = test system: SK-OV-3 ovarian
HT29 colon = test system: HT29 colon
HCC-2998 colon = test system: HCC-2998 colon
HL-60(TB) leukemia = test system: HL-60(TB) leukemia
SK-MEL-5 melanoma = test system: SK-MEL-5 melanoma
K-562 leukemia = test system: K-562 leukemia
SK-MEL-2 melanoma = test system: SK-MEL-2 melanoma
HS 578T breast = test system: HS 578T breast
A498 renal = test system: A498 renal
DU-145 prostate = test system: DU-145 prostate
UACC-257 melanoma = test system: UACC-257 melanoma
T-47D breast = test system: T-47D breast
HOP-62 NSCLC = test system: HOP-62 NSCLC
TK-10 renal = test system: TK-10 renal
SK-MEL-28 melanoma = test system: SK-MEL-28 melanoma
SR leukemia = test system: SR leukemia
MOLT-4 leukemia = test system: MOLT-4 leukemia
OVCAR-8 ovarian = test system: OVCAR-8 ovarian

COc1ccc2c(c1)C(=O)c1c-2c(Nc2ccccc2OC)nc2ccccc12 was tested, and the GI50 (HOP-92 NSCLC) was 26.4 µM, the TGI (HOP-92 NSCLC) was greater than 100 µM and the GI50 (SW-620 colon) was greater than 100 µM. It also gave a TGI (SW-620 colon) greater than 100 µM, a GI50 (786-0 renal) greater than 100 µM and a TGI (786-0 renal) greater than 100 µM. The GI50 (IGROV1 ovarian) was greater than 100 µM, the TGI (IGROV1 ovarian) was greater than 100 µM and the GI50 (SF-268 CNS) was greater than 100 µM. It also gave a TGI (SF-268 CNS) greater than 100 µM, a GI50 (NCI-H226 lung) greater than 100 µM and a TGI (NCI-H226 lung) greater than 100 µM. For the same molecule, the GI50 (KM12 colon) was greater than 100 µM, the TGI (KM12 colon) was greater than 100 µM and the GI50 (U251 CNS) was 83.2 µM. It also gave a TGI (U251 CNS) greater than 100 µM, a GI50 (RXF 393 renal) greater than 100 µM and a TGI (RXF 393 renal) greater than 100 µM. For the same molecule, the GI50 (MDA-MB-231 breast) was greater than 100 µM, the TGI (MDA-MB-231 breast) was greater than 100 µM and the GI50 (OVCAR-4 ovarian) was 50.5 µM. The TGI (OVCAR-4 ovarian) was greater than 100 µM, the GI50 (SNB-75 CNS) was greater than 100 µM and the TGI (SNB-75 CNS) was greater than 100 µM. For the same molecule, the GI50 (BT-549 breast) was greater than 100 µM, the TGI (BT-549 breast) was greater than 100 µM and the GI50 (COLO 205 colon) was greater than 100 µM. The TGI (COLO 205 colon) was greater than 100 µM, the GI50 (CCRF-CEM leukemia) was greater than 100 µM and the TGI (CCRF-CEM leukemia) was greater than 100 µM. It also gave a GI50 (NCI/ADR-RES ovarian) greater than 100 µM, a TGI (NCI/ADR-RES ovarian) greater than 100 µM and a GI50 (UO-31 renal) greater than 100 µM. The TGI (UO-31 renal) was greater than 100 µM, the GI50 (MCF7 breast) was greater than 100 µM and the TGI (MCF7 breast) was greater than 100 µM. The GI50 (UACC-62 melanoma) was greater than 100 µM, the TGI (UACC-62 melanoma) was greater than 100 µM and the GI50 (OVCAR-5 ovarian) was greater than 100 µM. It also gave a TGI (OVCAR-5 ovarian) greater than 100 µM, a GI50 (LOX IMVI melanoma) greater than 100 µM and a TGI (LOX IMVI melanoma) greater than 100 µM. The GI50 (NCI-H460 lung) was greater than 100 µM, the TGI (NCI-H460 lung) was greater than 100 µM and the GI50 (SF-295 CNS) was greater than 100 µM. It also gave a TGI (SF-295 CNS) greater than 100 µM, a GI50 (OVCAR-3 ovarian) greater than 100 µM and a TGI (OVCAR-3 ovarian) greater than 100 µM. The GI50 (A549 NSCLC) was greater than 100 µM, the TGI (A549 NSCLC) was greater than 100 µM and the GI50 (SNB-19 CNS) was greater than 100 µM. For the same molecule, the TGI (SNB-19 CNS) was greater than 100 µM, the GI50 (RPMI-8226 leukemia) was greater than 100 µM and the TGI (RPMI-8226 leukemia) was greater than 100 µM. The GI50 (SF-539 CNS) was greater than 100 µM, the TGI (SF-539 CNS) was greater than 100 µM and the GI50 (MALME-3M melanoma) was greater than 100 µM. The TGI (MALME-3M melanoma) was greater than 100 µM, the GI50 (M14 melanoma) was greater than 100 µM and the TGI (M14 melanoma) was greater than 100 µM. It also gave a GI50 (HCT-15 colon) greater than 100 µM, a TGI (HCT-15 colon) greater than 100 µM and a GI50 (NCI-H522 lung) greater than 100 µM. It also gave a TGI (NCI-H522 lung) greater than 100 µM, a GI50 (EKVX NSCLC) greater than 100 µM and a TGI (EKVX NSCLC) greater than 100 µM. The GI50 (MDA-MB-435) was greater than 100 µM, the TGI (MDA-MB-435) was greater than 100 µM and the GI50 (CAKI-1 renal) was greater than 100 µM. For the same molecule, the TGI (CAKI-1 renal) was greater than 100 µM, the GI50 (ACHN renal) was 89.2 µM and the TGI (ACHN renal) was greater than 100 µM. For the same molecule, the GI50 (NCI-H23 lung) was greater than 100 µM, the TGI (NCI-H23 lung) was greater than 100 µM and the GI50 (HCT-116 colon) was greater than 100 µM. The TGI (HCT-116 colon) was greater than 100 µM, the GI50 (SN12C renal) was 42.1 µM and the TGI (SN12C renal) was greater than 100 µM. For the same molecule, the GI50 (PC-3 prostate) was greater than 100 µM, the TGI (PC-3 prostate) was greater than 100 µM and the GI50 (SK-OV-3 ovarian) was greater than 100 µM. The TGI (SK-OV-3 ovarian) was greater than 100 µM, the GI50 (HT29 colon) was greater than 100 µM and the TGI (HT29 colon) was greater than 100 µM. It also gave a GI50 (HCC-2998 colon) greater than 100 µM, a TGI (HCC-2998 colon) greater than 100 µM and a GI50 (HL-60(TB) leukemia) greater than 100 µM. The TGI (HL-60(TB) leukemia) was greater than 100 µM, the GI50 (SK-MEL-5 melanoma) was greater than 100 µM and the TGI (SK-MEL-5 melanoma) was greater than 100 µM. For the same molecule, the GI50 (K-562 leukemia) was greater than 100 µM, the TGI (K-562 leukemia) was greater than 100 µM and the GI50 (SK-MEL-2 melanoma) was greater than 100 µM. The TGI (SK-MEL-2 melanoma) was greater than 100 µM, the GI50 (HS 578T breast) was greater than 100 µM and the TGI (HS 578T breast) was greater than 100 µM. The GI50 (A498 renal) was greater than 100 µM, the TGI (A498 renal) was greater than 100 µM and the GI50 (DU-145 prostate) was greater than 100 µM. The TGI (DU-145 prostate) was greater than 100 µM, the GI50 (UACC-257 melanoma) was greater than 100 µM and the TGI (UACC-257 melanoma) was greater than 100 µM. It also gave a GI50 (T-47D breast) greater than 100 µM, a TGI (T-47D breast) greater than 100 µM and a GI50 (HOP-62 NSCLC) greater than 100 µM. For the same molecule, the TGI (HOP-62 NSCLC) was greater than 100 µM, the GI50 (TK-10 renal) was greater than 100 µM and the TGI (TK-10 renal) was greater than 100 µM. The GI50 (SK-MEL-28 melanoma) was greater than 100 µM, the TGI (SK-MEL-28 melanoma) was greater than 100 µM and the GI50 (SR leukemia) was greater than 100 µM. It also gave a TGI (SR leukemia) greater than 100 µM, a GI50 (MOLT-4 leukemia) greater than 100 µM and a TGI (MOLT-4 leukemia) greater than 100 µM. It also gave a GI50 (OVCAR-8 ovarian) greater than 100 µM and a TGI (OVCAR-8 ovarian) greater than 100 µM.
